{"source": "patent US20030144360A1", "about": "“Composition and method for modulating BAR/FXR receptor activity” (Allergan Sales, Inc., priority 2001, published 2003)", "key": {"Caco-2 cells": {"tested_on": "Caco-2 cells", "assay": "Northern blot analysis of BAR/FXR target genes in differentiated Caco-2 cells", "assay_type": "cell-based, human", "conditions": "for IBABP expression / SHP expression: 10 μM, 24 hours", "experimental": "Caco-2 cells were maintained for 20 days post-confluence to allow differentiation. They were fed twice a week with their regular media during this period.\n(§1) One day prior to treatment, confluent HepG2 and differentiated Caco-2 cells were switched to phenol red-free media containing resin-charcoal stripped FBS and then treated for and additional 24 hours with the indicated compounds. Total RNA was isolated using the Trizol reagent. Northern blots were prepared from polyA^+ RNA using the Oligotex method (Qiagen) and analyzed with the following probes: human CYP7A (accession #M93133) nucleotides 1617-2576 (Karam and Chiang, 185 Biochem. Biophys. Res. Commun. 588 (1992)), human SHP (accession #L76571) nucleotides 888-1355, human IBABP (accession # A1311734), an EST containing the entire coding sequence of IBABP.\n(§2) We next tested the ability of AGN 29 and AGN 31 to regulate BAR/FXR target genes. We used the hepatoma cell line HepG2 as a hepatocyte model as this cell line has been used extensively to study cholesterol metabolism and bile acid-mediated gene regulation. We monitored the expression of two well known BAR/FXR target genes: CYP7A, the rate-limiting enzyme for bile acid synthesis, is down regulated by bile acids in HepG2 cells."}, "HepG2 cells": {"tested_on": "HepG2 cells", "assay": "Northern blot analysis of BAR/FXR target genes in HepG2 cells", "assay_type": "cell-based, human", "conditions": "for BAR/FXR expression / CYP7A expression / GAPDH expression / transcription of SHP: 24 hours", "experimental": "as §1, §2\nTo verify that AGN34 represses BAR/FXR […], we looked at its effect on BAR/FXR target genes in cultured cells by Northern blot analysis."}, "[1]": {"target": "T1, BAR/FXR (BAR-RXR heterodimer) (UniProt P19793+Q62735)", "T1 sequence (Q62735 1-469)": "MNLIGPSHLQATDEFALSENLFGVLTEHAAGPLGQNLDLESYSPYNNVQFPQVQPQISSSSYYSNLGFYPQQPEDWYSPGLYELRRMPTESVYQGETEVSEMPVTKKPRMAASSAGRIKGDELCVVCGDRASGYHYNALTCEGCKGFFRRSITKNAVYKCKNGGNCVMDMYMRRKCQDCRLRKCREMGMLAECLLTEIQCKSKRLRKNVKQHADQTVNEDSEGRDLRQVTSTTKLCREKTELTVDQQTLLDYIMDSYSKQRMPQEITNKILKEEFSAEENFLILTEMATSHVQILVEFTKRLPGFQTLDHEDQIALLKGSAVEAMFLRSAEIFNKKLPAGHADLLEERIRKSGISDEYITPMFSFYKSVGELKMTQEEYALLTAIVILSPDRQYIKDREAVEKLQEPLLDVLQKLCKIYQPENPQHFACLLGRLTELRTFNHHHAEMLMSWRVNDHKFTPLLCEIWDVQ", "T1 sequence (P19793 1-462)": "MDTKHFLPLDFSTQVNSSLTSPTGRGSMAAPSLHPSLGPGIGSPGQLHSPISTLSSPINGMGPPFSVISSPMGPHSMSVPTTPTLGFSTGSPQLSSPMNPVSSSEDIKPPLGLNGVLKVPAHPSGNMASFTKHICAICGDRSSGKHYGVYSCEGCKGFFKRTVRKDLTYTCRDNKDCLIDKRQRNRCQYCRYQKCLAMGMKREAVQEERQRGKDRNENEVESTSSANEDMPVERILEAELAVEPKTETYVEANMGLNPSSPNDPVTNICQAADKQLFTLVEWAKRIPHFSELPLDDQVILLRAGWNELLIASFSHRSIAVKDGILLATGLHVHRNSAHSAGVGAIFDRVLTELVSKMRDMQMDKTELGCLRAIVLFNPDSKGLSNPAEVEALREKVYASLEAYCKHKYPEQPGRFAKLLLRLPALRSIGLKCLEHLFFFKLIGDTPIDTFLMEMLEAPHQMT", "assay": "Transient cotransfection luciferase reporter assay, full-length BAR/FXR and RXR in CV-1 cells", "design": "repression of the BAR/RXR heterodimer: dose or concentration left out as unconfirmed", "conditions": "for activation of BAR/FXR (luciferase expression): 5 μM, 40 hours"}}}
{"smiles": "Cc1cc2c(cc1/C(=C/c1ccc(C(=O)O)cc1)[Si](C)(C)C)C(C)(C)CCC2(C)C", "note": "[AGN 29, (Z)-4-[2-(3,5,5,8,8-Pentamethy1-5,6,7,8-tetrahydronaphthalen-2-yl)-2-(trimethylsilyl)vinyl]benzoic Acid]", "values": [{"measurement": "IBABP expression", "setting": "Caco-2 cells", "result": "strongly induced"}, {"measurement": "SHP expression", "setting": "Caco-2 cells", "result": "strongly induced"}, {"measurement": "BAR/FXR expression", "setting": "HepG2 cells; 10 μM", "result": "no effect"}, {"measurement": "CYP7A expression", "setting": "HepG2 cells; 10 μM", "result": "repress"}, {"measurement": "GAPDH expression", "setting": "HepG2 cells; 10 μM", "result": "no effect"}, {"measurement": "transcription of SHP", "setting": "HepG2 cells; 10 μM", "result": "induce"}, {"measurement": "EC50", "setting": "[1]", "result": "~2000", "unit": "nM"}, {"measurement": "activation of BAR/FXR (luciferase expression)", "setting": "[1]", "result": 91, "unit": "fold"}]}
{"smiles": "CCCC/C(=C\\c1ccc(C(=O)O)cc1)c1ccc2c(c1)C(C)(C)CCC2(C)C", "note": "[AGN 31, 4-[2-(5,5,8,8-Tetramethyl-5,6,7,8-tetrahydronaphthalen-2-yl)hex-1-enyl]benzoic Acid]", "values": [{"measurement": "IBABP expression", "setting": "Caco-2 cells", "result": "strongly induced"}, {"measurement": "SHP expression", "setting": "Caco-2 cells", "result": "strongly induced"}, {"measurement": "BAR/FXR expression", "setting": "HepG2 cells; 10 μM", "result": "no effect"}, {"measurement": "CYP7A expression", "setting": "HepG2 cells; 10 μM", "result": "repress"}, {"measurement": "GAPDH expression", "setting": "HepG2 cells; 10 μM", "result": "no effect"}, {"measurement": "transcription of SHP", "setting": "HepG2 cells; 10 μM", "result": "induce"}, {"measurement": "EC50", "setting": "[1]", "result": "~2000", "unit": "nM"}, {"measurement": "activation of BAR/FXR (luciferase expression)", "setting": "[1]", "result": 85, "unit": "fold"}]}
{"smiles": "CCCCCCOc1c(\\C(C)=C/C=C/C(C)=C/C(=O)O)cc(C(C)C)cc1C(C)C", "note": "[AGN 34, (2E, 4E, 6Z)-7-(2-Hexyloxy-3,5-diisopropylphenyl)-3-methylocta-2,4,6-trienoic Acid]", "values": [{"measurement": "basal SHP levels", "setting": "Caco-2 cells; 1 μM AGN 34, 24 hours", "result": "did not affect"}, {"measurement": "CDCA-induced IBABP levels", "setting": "Caco-2 cells; 100 μM CDCA + 1 μM AGN34, 24 hours", "result": "reduced the induced IBABP levels close to basal levels"}, {"measurement": "basal SHP levels", "setting": "HepG2 cells; 1 μM AGN 34, 24 hours", "result": "did not affect"}, {"measurement": "CYP7A expression", "setting": "HepG2 cells; AGN 34 alone", "result": "repressed"}, {"measurement": "CYP7A expression", "setting": "HepG2 cells; combination of AGN 34 and CDCA", "result": "repressed even further"}, {"measurement": "repression of the BAR/RXR heterodimer", "setting": "[1]", "result": "~10", "unit": "fold"}, {"measurement": "repression of CDCA-activated transcription", "setting": "[1]; 0.03 μM AGN 34, constant concentration of CDCA", "result": "approximately 85%"}, {"measurement": "repression of CDCA-activated BAR-mediated transcription", "setting": "[1]; 50 μM CDCA + 1 μM AGN 34", "result": "~10", "unit": "fold"}, {"measurement": "basal activity of luciferase gene expression", "setting": "[1]; AGN 34 (1 μM) without CDCA", "result": "did not affect"}, {"measurement": "concentration showing maximal activity (repression)", "setting": "[1]; constant concentration of CDCA", "result": 1, "unit": "µM"}]}
